Active and inactive are the calls of the source. The calls are words filed in the database; no cut-off is given here.
What was measured:
DLD-1 [1] = test: Upregulation of ERK protein expression in TNF-alpha stimulated human DLD-1 cells at 50 uM preincubated for 4 hrs and followed TNF-alpha stimulation and measured after 10 mins by Western blot analysis; assay type: functional, cell-based; conditions: time 250.0 min
[2] = Cytotoxicity against human HCT-116 cells assessed as inhibition in cell proliferation; assay type: toxicity, cell-based
[3] = Toxicity in C57BL/6 mouse model of DSS-induced acute ulcerative colitis assessed as effect on spleen tissue at 100 to 300 mg/kg, po administered once a day for 7 days by H and E staining based analysis; assay type: organism-based; conditions: in vivo, 168 h, dose 100-300 mg/kg, time 7 day
[4] = Toxicity in Kunming mouse assessed as increase in body weight at 667 mg/kg, po measured for 15 days (reference value: 12.38%); assay type: organism-based; conditions: in vivo, 360 h, time 15 day
DLD-1 [5] = test: Effect on p38 protein expression in TNF-alpha stimulated human DLD-1 cells at 6.25 to 50 uM preincubated for 4 hrs and followed TNF-alpha stimulation and measured after 10 mins by Western blot analysis; assay type: functional, cell-based; conditions: dose 6.25-50 µM, time 250.0 min
DLD-1 [6] = test: Effect on NF-kappaB p65 protein expression in TNF-alpha stimulated human DLD-1 cells at 12.5 to 50 uM preincubated for 4 hrs and followed TNF-alpha stimulation and measured after 10 mins by Western blot analysis; assay type: functional, cell-based; conditions: dose 12.5-50 µM, time 250.0 min
Mus musculus [7] = test: Anti-inflammatory activity in C57BL/6 mouse model of DSS-induced acute ulcerative colitis assessed as reduction in histopathological changes of granulocyte infiltration at 100 to 300 mg/kg, po administered once a day for 7 days by H and E staining based analysis; assay type: functional, organism-based; conditions: dose 100-300 mg/kg, time 7.0 day
HCT-116 [8] = test: Upregulation of ERK protein expression in TNF-alpha stimulated human HCT-116 cells at 50 uM preincubated for 4 hrs and followed TNF-alpha stimulation and measured after 10 mins by Western blot analysis; assay type: functional, cell-based; conditions: time 250.0 min
HCT-116 [9] = test: Inhibition of TNF-alpha induced NF-kB activation in human HCT-116 cells assessed as decrease in phosphorylated IkappaBalpha protein expression preincubated for 4 hrs and followed TNF-alpha stimulation and measured after 10 mins by Western blot analysis; assay type: cell-based; conditions: dose 12.5-50 µM, time 250.0 min
[10] = Cytotoxicity against human DLD-1 cells assessed as inhibition in cell proliferation; assay type: toxicity, cell-based
Mus musculus [11] = test: Anti-inflammatory activity in C57BL/6 mouse model of DSS-induced acute ulcerative colitis assessed as increase in colon length at 100 to 300 mg/kg, po administered once a day for 7 days; assay type: functional, organism-based; conditions: dose 100-300 mg/kg, time 7.0 day
[12] = Selectivity index, ratio of CC50 for cytotoxicity against TNF-alpha induced HEK293T cells to IC50 for inhibition of TNF-alpha induced NF-kappaB activation in HEK293T cells; assay type: toxicity, cell-based; conditions: human, HEK293T cells induced with TNF-alpha; read-out: Ratio IC50
Mus musculus [13] = test: Anti-inflammatory activity in po dosed C57BL/6 mouse model of DSS-induced acute ulcerative colitis assessed as reduction in COX2 mRNA expression in colon administered once a day for 7 days by RT-PCR analysis; assay type: functional, organism-based; conditions: dose 100-300 mg/kg, time 7.0 day
RAW264.7 = test: Antiinflammatory activity in mouse RAW264.7 cells assessed as inhibition in LPS/IFNgamma-induced NO production preincubated for 2 hrs followed by LPS/IFNgamma stimulation and measured after 24 hrs by Griess reagent based assay; assay type: functional, cell-based
[14] = Cytotoxicity against LPS/IFNgamma induced mouse RAW264.7 cells assessed as inhibition of cell growth preincubated for 24 hrs followed by LPS/IFNgamma stimulation and measured after 24 hrs by SRB assay; assay type: toxicity, cell-based; conditions: RAW264.7 cells induced with LPS/IFNgamma, time 48 hrs
[15] = Toxicity in C57BL/6 mouse model of DSS-induced acute ulcerative colitis assessed as effect on lung tissue at 100 to 300 mg/kg, po administered once a day for 7 days by H and E staining based analysis; assay type: organism-based; conditions: in vivo, 168 h, dose 100-300 mg/kg, time 7 day
Mus musculus [16] = test: Anti-inflammatory activity in C57BL/6 mouse model of DSS-induced acute ulcerative colitis assessed as increase in IL-10 mRNA expression in colon at 100 to 300 mg/kg, po administered once a day for 7 days by RT-PCR analysis; assay type: functional, organism-based; conditions: dose 100-300 mg/kg, time 7.0 day
HCT-116 [17] = test: Effect on NF-kappaB p65 protein expression in TNF-alpha stimulated human HCT-116 cells at 12.5 to 50 uM preincubated for 4 hrs and followed TNF-alpha stimulation and measured after 10 mins by Western blot analysis; assay type: functional, cell-based; conditions: dose 12.5-50 µM, time 250.0 min
Mus musculus [18] = test: Anti-inflammatory activity in C57BL/6 mouse model of DSS-induced acute ulcerative colitis assessed as reversal of DSS-induced weight loss at 100 to 300 mg/kg, po administered once a day for 7 days; assay type: functional, organism-based; conditions: dose 100-300 mg/kg, time 7.0 day
Mus musculus [19] = test: Anti-inflammatory activity in po dosed C57BL/6 mouse model of DSS-induced acute ulcerative colitis assessed as decrease in TNF-alpha expression in serum administered once a day for 7 days by ELISA; assay type: functional, organism-based; conditions: dose 100-300 mg/kg, time 7.0 day
Mus musculus [20] = test: Anti-inflammatory activity in po dosed C57BL/6 mouse model of DSS-induced acute ulcerative colitis assessed as reduction in IL-6 mRNA expression in colon administered once a day for 7 days by RT-PCR analysis; assay type: functional, organism-based; conditions: dose 100-300 mg/kg, time 7.0 day
HCT-116 [21] = test: Effect on p38 protein expression in TNF-alpha stimulated human HCT-116 cells at 6.25 to 50 uM preincubated for 4 hrs and followed TNF-alpha stimulation and measured after 10 mins by Western blot analysis; assay type: functional, cell-based; conditions: dose 6.25-50 µM, time 250.0 min
DLD-1 [22] = test: Cytotoxicity against human DLD-1 cells assessed as induction of stress response at 50 uM; assay type: toxicity, cell-based; conditions: dld-1, 50 µM
[23] = Toxicity in Kunming mouse assessed as number of mouse survived at 1852 mg/kg, po measured for 15 days; assay type: organism-based; conditions: in vivo, 360 h, time 15 day
Mus musculus [24] = test: Anti-inflammatory activity in C57BL/6 mouse model of DSS-induced acute ulcerative colitis assessed as reduction in submucosal edema at 100 to 300 mg/kg, po administered once a day for 7 days by H and E staining based analysis; assay type: functional, organism-based; conditions: dose 100-300 mg/kg, time 7.0 day
[25] = Toxicity in C57BL/6 mouse model of DSS-induced acute ulcerative colitis assessed as effect on liver tissue at 100 to 300 mg/kg, po administered once a day for 7 days by H and E staining based analysis; assay type: organism-based; conditions: in vivo, 168 h, dose 100-300 mg/kg, time 7 day
HCT-116 [26] = test: Inhibition of TNF-alpha induced MAPK signaling pathway activation in human HCT-116 cells assessed as decrease in phospho-ERK protein expression at 6.25 uM preincubated for 4 hrs and followed TNF-alpha stimulation and measured after 10 mins by Western blot analysis; assay type: cell-based; conditions: time 250.0 min
HCT-116 [27] = test: Cytotoxicity against human HCT-116 cells assessed as induction of stress response at 50 uM; assay type: toxicity, cell-based; conditions: hct-116, 50 µM

SMILES: COC(=O)C1=C(C(=O)OC)C2OC1CC2C#Cc1ccc(C)cc1 (stereo not drawn)
- Activity (DLD-1 [1]): Active
- IC50 [2]: 14.3 µM
- Activity [3]: Non-Toxic
- Activity [4]: 19.18%
- Activity (DLD-1 [5]): inactive
- Activity (DLD-1 [6]): inactive
- Activity (Mus musculus [7]): Active
- Activity (HCT-116 [8]): Active
- inhibition (HCT-116 [9]): Dose-Dependent Effect
- IC50 [10]: 8.24 µM
- Activity (Mus musculus [11]): Active
- selectivity ratio [12]: 5.85
- Activity (Mus musculus [13]): Dose-Dependent Effect
- IC50 (RAW264.7): 2.66 µM
- CC50 at 24 h [14]: 12.2 µM
- Activity [15]: Non-Toxic
- Activity (Mus musculus [16]): Active
- Activity (HCT-116 [17]): inactive
- Activity (Mus musculus [18]): Active
- Activity (Mus musculus [19]): Dose-Dependent Effect
- Activity (Mus musculus [20]): Dose-Dependent Effect
- Activity (HCT-116 [21]): inactive
- Activity (DLD-1 [22]): Toxic
- Activity [23]: 0
- Activity (Mus musculus [24]): Active
- Activity [25]: Non-Toxic
- inhibition (HCT-116 [26]): Active
- Activity (HCT-116 [27]): Toxic

Source: ChEMBL document CHEMBL5634091, “Cantharidin analogue alleviates dextran sulfate sodium-induced colitis in mice by inhibiting the activation of NF-κB signaling” (Eur J Med Chem, 2023)
